Target: T1, beta-site amyloid cleaving enzyme (BACE)1 (Homo sapiens, UniProt P56817)
T1 construct: gene BACE1
Assay: BACE1 FRET assay kit (Panvera), Swedish-mutant peptide substrate
Type: biochemical

T1 sequence (P56817 46-457): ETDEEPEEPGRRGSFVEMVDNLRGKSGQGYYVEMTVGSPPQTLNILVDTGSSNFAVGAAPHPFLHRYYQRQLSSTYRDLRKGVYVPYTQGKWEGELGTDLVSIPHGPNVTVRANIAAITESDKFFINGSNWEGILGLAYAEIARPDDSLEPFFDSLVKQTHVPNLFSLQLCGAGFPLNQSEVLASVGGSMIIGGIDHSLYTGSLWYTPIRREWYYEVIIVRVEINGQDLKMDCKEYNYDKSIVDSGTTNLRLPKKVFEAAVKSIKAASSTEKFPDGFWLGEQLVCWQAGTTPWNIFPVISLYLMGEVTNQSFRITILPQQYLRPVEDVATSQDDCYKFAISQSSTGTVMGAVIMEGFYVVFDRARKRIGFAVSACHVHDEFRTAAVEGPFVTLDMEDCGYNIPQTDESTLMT

## COc1ccc(-c2oc3c(CC=C(C)C)c(O)cc(O)c3c(=O)c2O)cc1 [ICT, Icaritin]
  IC50: 5.7 ± 1.09 µM

Reference: PMC6910110, “Icaritin, an inhibitor of beta-site amyloid cleaving enzyme-1, inhibits secretion of amyloid precursor protein in APP-PS1-HEK293 cells by impeding the amyloidogenic pathway” (PeerJ, 2019)
